Experimental data from ChEMBL document CHEMBL1201862, “PubChem BioAssay data set” (2004).
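Exposure lasted 48 hours, with cells grown in 96-well plates and compounds tested at five concentrations. GI50 = concentration required for 50% inhibition of growth.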 Activity calls are given as the source filed them. No stated cut-off is given here; in the data, active = GI50 up to about 1.1 µM and inactive = higher.

Tests used:
Experiment in all cases: growth of human tumour cells (NCI), 48 h
[1] = tested on: 786-0
[2] = tested on: A498
[3] = tested on: A549
[4] = tested on: ACHN
[5] = tested on: CCRF-CEM
[6] = tested on: COLO 205
[7] = tested on: DLD-1
[8] = tested on: DMS-114
[9] = tested on: EKVX
[10] = tested on: HCT-116
[11] = tested on: HCT-15
[12] = tested on: HL-60
[13] = tested on: HOP-18
[14] = tested on: HOP-62
[15] = tested on: HOP-92
[16] = tested on: HT-29
[17] = tested on: IGROV-1
[18] = tested on: K562
[19] = tested on: KM-20L2
[20] = tested on: KM12
[21] = tested on: LOX IMVI
[22] = tested on: LXFL 529
[23] = tested on: M14
[24] = tested on: M19-MEL
[25] = tested on: MOLT-4
[26] = tested on: Malme-3M
[27] = tested on: NCI-H226
[28] = tested on: NCI-H23
[29] = tested on: NCI-H460
[30] = tested on: NCI-H522
[31] = tested on: OVCAR-3
[32] = tested on: OVCAR-4
[33] = tested on: OVCAR-5
[34] = tested on: OVCAR-8
[35] = tested on: RPMI-8226
[36] = tested on: RXF 393
[37] = tested on: RXF 631
[38] = tested on: SF-268
[39] = tested on: SF-295
[40] = tested on: SF-539
[41] = tested on: SK-MEL-28
[42] = tested on: SK-MEL-2
[43] = tested on: SK-MEL-5
[44] = tested on: SK-OV-3
[45] = tested on: SN12C
[46] = tested on: SNB-19
[47] = tested on: SNB-78
[48] = tested on: SW-620
[49] = tested on: U-251
[50] = tested on: UACC-257
[51] = tested on: UACC-62
[52] = tested on: UO-31
[53] = tested on: XF498
[54] = tested on: CAKI-1
[55] = tested on: DMS-273
[56] = tested on: HCC 2998
[57] = tested on: SNB-75
[58] = tested on: SR
[59] = tested on: TK-10

Compound: N#CC(C(=O)/C(=N\NC(N)=O)C(C#N)c1ccc(Cl)cc1)c1ccc(Cl)cc1 (centres undefined)
- GI50 [1]: > 100 µM (inactive)
- GI50 [2]: > 100 µM (inactive)
- GI50 [3]: > 100 µM (inactive)
- GI50 [4]: > 100 µM (inactive)
- GI50 [5]: > 100 µM (inactive)
- GI50 [6]: > 100 µM (inactive)
- GI50 [7]: > 100 µM (inactive)
- GI50 [8]: > 100 µM (inactive)
- GI50 [9]: > 100 µM (inactive)
- GI50 [10]: > 100 µM (inactive)
- GI50 [11]: > 100 µM
- GI50 [12]: > 100 µM (inactive)
- GI50 [13]: > 100 µM (inactive)
- GI50 [14]: > 100 µM (inactive)
- GI50 [15]: 68.4 µM (inactive)
- GI50 [16]: > 100 µM (inactive)
- GI50 [17]: > 100 µM (inactive)
- GI50 [18]: > 100 µM (inactive)
- GI50 [19]: > 100 µM (inactive)
- GI50 [20]: > 100 µM (inactive)
- GI50 [21]: > 100 µM (inactive)
- GI50 [22]: > 100 µM (inactive)
- GI50 [23]: > 100 µM (inactive)
- GI50 [24]: > 100 µM (inactive)
- GI50 [25]: > 100 µM (inactive)
- GI50 [26]: > 100 µM (inactive)
- GI50 [27]: > 100 µM (inactive)
- GI50 [28]: > 100 µM (inactive)
- GI50 [29]: > 100 µM (inactive)
- GI50 [30]: > 100 µM (inactive)
- GI50 [31]: > 100 µM (inactive)
- GI50 [32]: > 100 µM (inactive)
- GI50 [33]: > 100 µM (inactive)
- GI50 [34]: > 100 µM (inactive)
- GI50 [35]: > 100 µM (inactive)
- GI50 [36]: > 100 µM (inactive)
- GI50 [37]: > 100 µM (inactive)
- GI50 [38]: > 100 µM (inactive)
- GI50 [39]: > 100 µM (inactive)
- GI50 [40]: > 100 µM (inactive)
- GI50 [41]: > 100 µM (inactive)
- GI50 [42]: > 100 µM (inactive)
- GI50 [43]: > 100 µM (inactive)
- GI50 [44]: > 100 µM (inactive)
- GI50 [45]: > 100 µM (inactive)
- GI50 [46]: > 100 µM (inactive)
- GI50 [47]: > 100 µM (inactive)
- GI50 [48]: > 100 µM (inactive)
- GI50 [49]: > 100 µM (inactive)
- GI50 [50]: > 100 µM (inactive)
- GI50 [51]: > 100 µM (inactive)
- GI50 [52]: > 100 µM (inactive)
- GI50 [53]: > 100 µM (inactive)

Compound: C=C(CCCO)[C@@H]1CC[C@@](C)(O)[C@H]1C
- GI50 [1]: > 100 µM (inactive)
- GI50 [3]: > 100 µM (inactive)
- GI50 [4]: > 100 µM (inactive)
- GI50 [54]: > 100 µM (inactive)
- GI50 [6]: > 100 µM (inactive)
- GI50 [7]: > 10 µM (inactive)
- GI50 [8]: > 100 µM (inactive)
- GI50 [55]: > 100 µM (inactive)
- GI50 [9]: > 100 µM (inactive)
- GI50 [56]: > 100 µM (inactive)
- GI50 [10]: > 100 µM (inactive)
- GI50 [11]: > 100 µM
- GI50 [13]: > 100 µM (inactive)
- GI50 [16]: > 100 µM (inactive)
- GI50 [17]: > 100 µM (inactive)
- GI50 [18]: > 100 µM (inactive)
- GI50 [19]: > 100 µM (inactive)
- GI50 [20]: > 100 µM (inactive)
- GI50 [22]: > 100 µM (inactive)
- GI50 [24]: > 100 µM (inactive)
- GI50 [25]: > 100 µM (inactive)
- GI50 [26]: > 100 µM (inactive)
- GI50 [27]: > 100 µM (inactive)
- GI50 [28]: > 100 µM (inactive)
- GI50 [29]: > 100 µM (inactive)
- GI50 [30]: > 100 µM (inactive)
- GI50 [31]: > 100 µM (inactive)
- GI50 [32]: > 100 µM (inactive)
- GI50 [33]: > 100 µM (inactive)
- GI50 [34]: > 100 µM (inactive)
- GI50 [35]: > 100 µM (inactive)
- GI50 [36]: > 100 µM (inactive)
- GI50 [37]: > 100 µM (inactive)
- GI50 [39]: > 100 µM (inactive)
- GI50 [40]: > 100 µM (inactive)
- GI50 [41]: > 100 µM (inactive)
- GI50 [42]: > 100 µM (inactive)
- GI50 [43]: > 100 µM (inactive)
- GI50 [44]: 0.885 µM (active)
- GI50 [45]: > 100 µM (inactive)
- GI50 [46]: > 100 µM (inactive)
- GI50 [57]: 33.1 µM (inactive)
- GI50 [47]: > 100 µM (inactive)
- GI50 [58]: > 100 µM (inactive)
- GI50 [48]: > 100 µM (inactive)
- GI50 [59]: > 100 µM (inactive)
- GI50 [49]: > 100 µM (inactive)
- GI50 [50]: > 100 µM (inactive)
- GI50 [51]: > 100 µM (inactive)
- GI50 [52]: > 100 µM (inactive)
- GI50 [53]: > 100 µM (inactive)

Compound: C#CCOCn1cnc2c(Cl)ncnc21
- GI50 [1]: > 100 µM (inactive)
- GI50 [2]: > 100 µM (inactive)
- GI50 [3]: > 100 µM (inactive)
- GI50 [4]: > 100 µM (inactive)
- GI50 [54]: > 100 µM (inactive)
- GI50 [5]: > 100 µM (inactive)
- GI50 [6]: > 100 µM (inactive)
- GI50 [7]: > 100 µM (inactive)
- GI50 [8]: 41.4 µM (inactive)
- GI50 [55]: > 100 µM (inactive)
- GI50 [9]: > 100 µM (inactive)
- GI50 [56]: > 100 µM (inactive)
- GI50 [10]: > 100 µM (inactive)
- GI50 [13]: > 100 µM (inactive)
- GI50 [14]: > 100 µM (inactive)
- GI50 [15]: > 100 µM (inactive)
- GI50 [16]: > 100 µM (inactive)
- GI50 [17]: > 100 µM (inactive)
- GI50 [18]: 59.6 µM (inactive)
- GI50 [20]: > 100 µM (inactive)
- GI50 [21]: 52.6 µM (inactive)
- GI50 [22]: > 100 µM (inactive)
- GI50 [23]: > 100 µM (inactive)
- GI50 [24]: > 100 µM (inactive)
- GI50 [25]: 67.5 µM (inactive)
- GI50 [26]: > 100 µM (inactive)
- GI50 [27]: > 100 µM (inactive)
- GI50 [28]: > 100 µM (inactive)
- GI50 [29]: > 100 µM (inactive)
- GI50 [30]: 86.1 µM (inactive)
- GI50 [31]: > 100 µM (inactive)
- GI50 [32]: > 100 µM (inactive)
- GI50 [33]: > 100 µM (inactive)
- GI50 [34]: > 100 µM (inactive)
- GI50 [35]: > 100 µM (inactive)
- GI50 [37]: > 100 µM (inactive)
- GI50 [38]: > 100 µM (inactive)
- GI50 [39]: > 100 µM (inactive)
- GI50 [40]: > 100 µM (inactive)
- GI50 [41]: > 100 µM (inactive)
- GI50 [42]: > 100 µM (inactive)
- GI50 [43]: > 100 µM (inactive)
- GI50 [44]: > 100 µM (inactive)
- GI50 [45]: > 100 µM (inactive)
- GI50 [46]: > 100 µM (inactive)
- GI50 [57]: > 100 µM (inactive)
- GI50 [47]: > 100 µM (inactive)
- GI50 [58]: 50.9 µM (inactive)
- GI50 [48]: > 100 µM (inactive)
- GI50 [59]: > 100 µM (inactive)
- GI50 [49]: > 100 µM (inactive)
- GI50 [50]: > 100 µM (inactive)
- GI50 [51]: > 100 µM (inactive)
- GI50 [52]: > 100 µM (inactive)
- GI50 [53]: > 100 µM (inactive)
